Test results reported in paper PMC8373216, “Development and Preclinical Evaluation of New Inhaled Lipoglycopeptides for the Treatment of Persistent Pulmonary Methicillin-Resistant Staphylococcus aureus Infections” (Antimicrobial Agents and Chemotherapy, 2021).
Where two headings read alike, the source gives them in different places.

Tests used:
Streptococcus pyogenes = assay: Expanded panel broth microdilution MIC/MBC; assay type: cell-based; settings: for MIC: Streptococcus pyogenes
[1] = system: Staphylococcus lugdunensis; assay: Expanded panel broth microdilution MIC; assay type: cell-based
Enterococcus faecalis = assay: Expanded panel broth microdilution MIC/MBC; assay type: cell-based
Enterococcus faecium = assay: Expanded panel broth microdilution MIC/MBC; assay type: cell-based; settings: for MIC: Enterococcus faecium, read-out: MIC
[2] = system: Streptococcus constellatus; assay: Expanded panel broth microdilution MIC; assay type: cell-based
Streptococcus anginosus = assay: Expanded panel broth microdilution MIC/MBC; assay type: cell-based; settings: for MIC: Streptococcus anginosus, read-out: MIC
[3] = system: MRSA ATCC BAA 1556 (USA300) biofilm; assay: Static MRSA biofilm killing, plastic microtiter plate, MEM
[4] = system: Staphylococcus epidermidis; assay: Expanded panel broth microdilution MIC/MBC; assay type: cell-based; settings: for MIC: Staphylococcus epidermidis
[5] = system: MRSA ATCC BAA 1556 (USA300); assay: In-house broth microdilution MIC screening; assay type: cell-based, Staphylococcus aureus; settings: Staphylococcus aureus; broth microdilution; read-out: MIC Value, MRSA ATCC BAA 1556
Streptococcus agalactiae = assay: Expanded panel broth microdilution MIC/MBC; assay type: cell-based; settings: for MIC: Streptococcus agalactiae
Clostridium. perfringens = assay: microbe, parasite or virus in culture; assay type: cell-based
[6] = system: MRSA ATCC BAA 1556 (USA300) biofilm; assay: MRSA biofilm killing, MBEC assay system, TSB with 1% human plasma; settings: MBEC
MSSA ATCC 29213 = assay: In-house broth microdilution MIC screening; assay type: cell-based; settings: Staphylococcus aureus; broth microdilution; read-out: MIC Value, MSSA ATCC 29213
Clostridioides difficile = assay: Expanded panel broth microdilution MIC; assay type: cell-based
Streptococcus mitis = assay: Expanded panel broth microdilution MIC/MBC; assay type: cell-based; settings: for MIC: Streptococcus mitis
S. aureus = assay: Expanded panel broth microdilution MIC/MBC; settings: for MIC: Staphylococcus aureus
[7] = system: Streptococcus dysgalactiae; assay: Expanded panel broth microdilution MIC/MBC; assay type: cell-based; settings: for MIC: Streptococcus dysgalactiae

CCCCCCCCCCNCCN[C@@]1(C)C[C@H](O[C@H]2[C@H](Oc3c4cc5cc3Oc3ccc(cc3Cl)[C@@H](O)[C@@H](NC(=O)[C@@H](CC(C)C)NC)C(=O)N[C@@H](CC(N)=O)C(=O)N[C@H]5C(=O)N[C@H]3C(=O)N[C@H](C(=O)N[C@H](C(=O)O)c5cc(O)cc(O)c5-c5cc3ccc5O)[C@H](O)c3ccc(c(Cl)c3)O4)O[C@H](CO)[C@@H](O)[C@@H]2O)O[C@@H](C)[C@H]1O [RV40, N-decylaminoethylvancomycin]
0.5 mg/L: MIC (Enterococcus faecalis; E. faecalis VanA VRE, 1 isolate) | MIC (Enterococcus faecalis; Enterococcus faecalis, E. faecalis MMX 1086, VanA VRE, read-out: MIC)
0.06 mg/L: MIC (Streptococcus pyogenes; ATCC19615, S. pyogenes ATCC 19615, read-out: MIC) | MIC (Clostridioides difficile; ATCCBAA1805, C. difficile ATCC BAA-1805, ribo 027, read-out: MIC) | MIC (Clostridioides difficile; C. difficile ATTC 700057, toxAB-, read-out: MIC) | MIC (Clostridioides difficile; C. difficile ribo 027, 1 isolate, read-out: MIC) | MIC (Clostridioides difficile; C. difficile toxAB-, 1 isolate, read-out: MIC) | MIC (S. aureus; NRS1 / VISA, S. aureus NRS1, VISA, Mu50) | MIC (S. aureus; NRS4 / VISA, S. aureus NRS4, VISA) | MIC (S. aureus; NRS22 / VISA, S. aureus NRS22, VISA) | MIC (S. aureus; VISA, read-out: MIC (median), S. aureus VISA, 5 isolates)
0.008 mg/L: MIC (Streptococcus pyogenes; S. pyogenes MMX 946, ermR, read-out: MIC) | MIC (Streptococcus pyogenes; S. pyogenes ermR, 1 isolate, read-out: MIC) | MIC (Enterococcus faecium; VRE, E. faecium MMX 173, VanB VRE) | MIC (Enterococcus faecium; VRE, E. faecium VanB VRE, 1 isolate) | MIC ([2]; S. constellatus AGS, 1 isolate) | MIC ([2]; Streptococcus constellatus, S. constellatus (AGS) MMX 5677, read-out: MIC) | MIC ([4]; MRSE, S. epidermidis MMX 762, MRSE, read-out: MIC) | MIC ([4]; MRSE, S. epidermidis MRSE, 2 isolates, read-out: MIC (median)) | MIC (Streptococcus agalactiae; ATCC13813, S. agalactiae ATCC 13813, read-out: MIC) | MIC (Streptococcus agalactiae; S. agalactiae MMX 4088, read-out: MIC) | MIC (Streptococcus agalactiae; S. agalactiae MMX 4115, ermR, read-out: MIC) | MIC (Streptococcus agalactiae; S. agalactiae ermR, 1 isolate, read-out: MIC) | MIC (Streptococcus agalactiae; S. agalactiae, 2 isolates, read-out: MIC (median)) | MIC (Streptococcus mitis; ATCC49456, S. mitis (MGS) ATCC 49456, read-out: MIC) | MIC (S. aureus; ATCC29213 / MSSA, S. aureus ATCC 29213, MSSA) | MIC (S. aureus; ATCC43300 / MRSA, S. aureus ATCC 43300, MRSA) | MIC (S. aureus; ATCCBAA1556|MRSA|USA300, S. aureus ATCC BAA-1556, MRSA, USA300 (expanded panel)) | MIC (S. aureus; ATCCBAA1756|MRSA|NRS384|USA300, S. aureus NRS 384, ATCC BAA-1756, MRSA, USA300) | MIC (S. aureus; MRSA / NRS123 / USA400, S. aureus NRS123, MRSA, USA400) | MIC (S. aureus; MRSA / NRS725 / USA300, S. aureus NRS725, MRSA, USA300) | MIC (S. aureus; MRSA / USA300, S. aureus MMX 3982, MRSA, USA300) | MIC (S. aureus; MRSA, S. aureus MMX 7899, MRSA) | MIC (S. aureus; MRSA, S. aureus MMX 7900, MRSA) | MIC (S. aureus; MRSA, S. aureus MMX 7901, MRSA) | MIC (S. aureus; MRSA, S. aureus MMX 7903, MRSA) | MIC (S. aureus; MRSA, read-out: MIC (median), S. aureus MRSA, 12 isolates) | MIC (S. aureus; MSSA, S. aureus MMX 7907, MSSA) | MIC ([7]; S. dysgalactiae MMX 5121, read-out: MIC)
0.012 mg/L: MIC (S. aureus; MSSA, read-out: MIC (median), S. aureus MSSA, 4 isolates)
0.02 mg/L: MIC (Streptococcus mitis; S. mitis MGS, 2 isolates, read-out: MIC (median))
4 log10 CFU/peg: Reduction in MRSA biofilm titer compared to untreated biofilm ([6]; 128 μg/ml)
≥ 4 µg/mL: Concentrations with statistically significant reduction versus control biofilm ([6]; two-way ANOVA, Bonferroni)
0.12 mg/L: MIC (Clostridioides difficile; ATCCBAA1870, C. difficile ATCC BAA-1870, NAP1;ribo 027, read-out: MIC) | MIC (Clostridioides difficile; C. difficile NAP1;ribo 027, 1 isolate, read-out: MIC) | MIC ([7]; S. dysgalactiae MMX 5123, read-out: MIC)
~3 log10 CFU/ml: Reduction in MRSA biofilm titer versus control ([3]; doses 1 to 10 μg/ml)
0.016 mg/L: MIC [5] | MIC (MSSA ATCC 29213)
1: MIC:MBC (Streptococcus pyogenes; S. pyogenes ermR) | MIC:MBC ([4]; S. epidermidis MRSE, MBC on one organism) | MIC:MBC (Streptococcus agalactiae; S. agalactiae, MBC on one organism) | MIC:MBC (Streptococcus mitis; S. mitis MGS, MBC on one organism) | MIC:MBC (S. aureus; S. aureus MRSA, MBC median of n = 5) | MIC:MBC (S. aureus; S. aureus MSSA, MBC on one organism) | MIC:MBC (S. aureus; S. aureus VISA, MBC median of n = 2) | MIC:MBC (S. aureus; S. aureus hVISA, MBC on one organism) | MIC:MBC ([7]; S. dysgalactiae, MBC on one organism)
0.015 mg/L: MIC (Streptococcus pyogenes; S. pyogenes MMX 8778, read-out: MIC) | MIC (Enterococcus faecalis; Enterococcus faecalis, ATCC29212, E. faecalis ATCC 29212, VSE, read-out: MIC) | MIC (Streptococcus anginosus; ATCC33397, S. anginosus (AGS) ATCC 33397) | MIC (Streptococcus anginosus; S. anginosus AGS, 1 isolate) | MIC ([4]; ATCC49134, S. epidermidis ATCC 49134, MSSE, read-out: MIC) | MIC ([4]; S. epidermidis MSSE, 1 isolate, read-out: MIC) | MIC (Clostridium. perfringens) | MIC (Clostridium. perfringens; ATCC13124) | MIC (S. aureus; ATCC13709 / MSSA, S. aureus ATCC 13709, MSSA) | MIC (S. aureus; MRSA, S. aureus MMX 5715, MRSA) | MIC (S. aureus; MRSA, S. aureus MMX 7902, MRSA) | MIC (S. aureus; MSSA, S. aureus MMX 7908, MSSA) | MIC (S. aureus; NRS2, S. aureus NRS2, hVISA;Mu3) | MIC ([7]; S. dysgalactiae MMX 5124, read-out: MIC) | MIC ([7]; S. dysgalactiae, 3 isolates, read-out: MIC (median))
0.004 mg/L: MIC ([1]; S. lugdunensis, 1 isolate) | MIC ([1]; Staphylococcus lugdunensis, S. lugdunensis MMX 8724, read-out: MIC) | MIC (Enterococcus faecium; E. faecium MMX 4204, VSE) | MIC (Enterococcus faecium; E. faecium VSE, 1 isolate) | MIC ([4]; MRSE, S. epidermidis MMX 5145, MRSE, read-out: MIC)
0.04 mg/L: MIC (Streptococcus pyogenes; S. pyogenes, 2 isolates, read-out: MIC (median))
>8: MIC:MBC (Enterococcus faecalis; E. faecalis VSE, MBC on one organism) | MIC:MBC (Enterococcus faecium; E. faecium VanB VRE) | MIC:MBC (Streptococcus anginosus; S. anginosus AGS)
0.023 mg/L: MIC (Enterococcus faecalis; Enterococcus faecalis, E. faecalis VSE, 2 isolates, read-out: MIC (median)) | MIC (S. aureus; read-out: MIC (median), S. aureus hVISA, 2 isolates)
≥ 1.25 µg/mL: Concentrations with statistically significant reduction versus control biofilm ([3]; two-way ANOVA, Bonferroni)
1 mg/L: MIC (Enterococcus faecium; VRE, E. faecium MMX 851, VanA VRE) | MIC (Enterococcus faecium; VRE, E. faecium VanA VRE, 1 isolate)
>4: MIC:MBC (Enterococcus faecium; E. faecium VanA VRE)
0.03 mg/L: MIC (Enterococcus faecalis; Enterococcus faecalis, E. faecalis MMX 4176, VSE, read-out: MIC) | MIC (Streptococcus mitis; S. mitis (MGS) MMX 5798, read-out: MIC) | MIC (S. aureus; NRS13 / VISA, S. aureus NRS13, VISA) | MIC (S. aureus; NRS23, S. aureus NRS23, hVISA) | MIC (S. aureus; NRS52 / VISA, S. aureus NRS52, VISA)
8: MIC:MBC (Enterococcus faecalis; E. faecalis VanA VRE)
